Literature values, collected in patent publication US12708634B2, “Psilocybin derived compositions and methods using same” (1242753 Ontario Inc., priority 2021, dated 2026).

Columns and labels:
[1] = tested on: patients with advanced-stage cancer; conditions: oral dose 0.2 mg/kg
[2] = tested on: patients with treatment-resistant major depression; conditions: two oral doses (10 mg followed by 25 mg a week later)

Q: With CN(C)CCc1c[nH]c2cccc(OP(=O)(O)O)c12 [psilocybin] as the molecule, how does the adverse events [1] read?
A: no clinically significant adverse events

Q: And the adverse events [2]?
A: no clinically significant adverse events
